Results as given in patent US9365608B2, “Method for treating diabetes” (Ohr Pharmaceutical, Inc., priority 2007, dated 2016).
“Also recorded” adds a separate entry of the source.

Experiments:
[1] = tested on: Db/db (Lepr^db) mouse; assay: Oral glucose tolerance test (OGTT) in the diabetic Db/db mouse; type: in vivo; conditions: for % Reduction in OGTT Above Baseline AUC / Reduction in ABAUC compared to saline control (in words): Db/db mice; for % Reduction in OGTT Above Baseline AUC: 5 or 10 mg/kg ip every 3 days x4, day 14, oral glucose 1.5 g/kg, 0-120 min, vs saline; for Reduction in ABAUC compared to saline control (in words): OGTT study day 14, p<0.05; for Response in glucose tolerance test vs saline treated controls (FIG. 3 legend): legend says ob/ob mice
Protocol: (§1) To determine in vivo efficacy of the steroid analogues a Db/db (Lepr^db) in mouse model was used. Db/db mice are extensively used for screening of antidiabetic agents. Db/db mice were treated with either saline or 5 or 10 mg/kg steroid analogue every 3 days for a total of 4 doses via ip injection. Body weight, glucose tolerance and fasting blood glucose levels were measured for each group during the study. Each group had at least an N of 4 animals. All reagents and lab animals are commercially available.
Also on study day 14, an OGTT was performed to assess glucose tolerance. At time 0, an oral glucose challenge (1.5 g/kg) was administered by oral gavage. At timepoints 0, 15, 30, 60, 90, 120 min post glucose load, 25 μl of whole blood was withdrawn from the tail vein of the animal and the glucose level was measured using a glucose analyzer. The glucose concentration vs time was plotted (FIG. 2). Above baseline area under the curve (ABAUC) of the glucose excursion time curve was determined using trapezoidal rule analyses.

[2] = tested on: Db/db (Lepr^db) mouse; assay: Fasting blood glucose in the diabetic Db/db mouse; type: in vivo; conditions: Db/db mice; for % Reduction in FBG: 5 or 10 mg/kg ip every 3 days x4 doses, study day 14 after overnight fast, vs saline; for Reduction of FBG levels compared to saline control (in words): study day 14
Protocol: as §1
On study day 13, all animal groups were fasted overnight. On study day 14, 25 μL of whole blood was collected and analyzed for the glucose level (mg/dL) using a glucose analyzer.

[3] = biological target: T1, full length tyrosine phosphatase PTP1B (Homo sapiens, UniProt P18031); assay: Inhibition of PTP1B by steroid analogues (pNPP hydrolysis, absorbance 405 nm); type: biochemical; conditions: read-out: PTP1B Inhibition (5 μM)
T1 construct: commercially available full length tyrosine phosphatase PTP1B; purchased
T1 sequence (P18031 1-435): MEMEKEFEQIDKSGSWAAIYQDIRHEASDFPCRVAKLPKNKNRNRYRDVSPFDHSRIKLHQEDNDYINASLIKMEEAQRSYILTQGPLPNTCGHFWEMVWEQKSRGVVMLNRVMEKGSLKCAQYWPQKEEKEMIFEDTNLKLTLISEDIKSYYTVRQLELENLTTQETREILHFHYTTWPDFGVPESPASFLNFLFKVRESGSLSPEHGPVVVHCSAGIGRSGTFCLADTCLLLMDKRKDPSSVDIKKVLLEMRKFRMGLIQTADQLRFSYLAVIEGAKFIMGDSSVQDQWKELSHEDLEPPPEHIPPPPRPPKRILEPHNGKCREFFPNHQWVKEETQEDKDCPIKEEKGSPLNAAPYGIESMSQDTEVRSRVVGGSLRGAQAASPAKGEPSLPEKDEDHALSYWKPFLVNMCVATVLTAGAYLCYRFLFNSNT
Protocol: The steroid analogues were tested for inhibition against the commercially available full length tyrosine phosphatase PTP1B. […] The assay uses para-nitro-phenyl phosphate (pNPP), a non-specific substrate to assess phosphatase activity. Phosphatase activity was based on the ability of PTP 1B to catalyze the hydrolysis of pNPP to p-nitrophenol (pNP).

[4] = tested on: Db/db (Lepr^db) mouse; assay: Body weight change in the diabetic Db/db mouse; type: in vivo; conditions: Db/db mice, 5 or 10 mg/kg ip every 3 days x4; for % Change in Body Weight: vs body weight on study day 0
Protocol: as §1
Starting at study day 0, body weight measurements were taken every day for each group for up to 30 days. Percent change in body weight was calculated as the fractional response of body weight on study day X over the original body weight on study day 0.

[5] = previously described in US patents; cited from earlier work
[6] = biological target: T2, full length TCPTP (Homo sapiens, UniProt P17706); assay: Inhibition of TCPTP by steroid analogues (pNPP hydrolysis); type: biochemical; conditions: 200 μM inhibitor; pNPP substrate
T2 construct: except full length TCPTP was used as the enzyme
T2 sequence (P17706 1-415): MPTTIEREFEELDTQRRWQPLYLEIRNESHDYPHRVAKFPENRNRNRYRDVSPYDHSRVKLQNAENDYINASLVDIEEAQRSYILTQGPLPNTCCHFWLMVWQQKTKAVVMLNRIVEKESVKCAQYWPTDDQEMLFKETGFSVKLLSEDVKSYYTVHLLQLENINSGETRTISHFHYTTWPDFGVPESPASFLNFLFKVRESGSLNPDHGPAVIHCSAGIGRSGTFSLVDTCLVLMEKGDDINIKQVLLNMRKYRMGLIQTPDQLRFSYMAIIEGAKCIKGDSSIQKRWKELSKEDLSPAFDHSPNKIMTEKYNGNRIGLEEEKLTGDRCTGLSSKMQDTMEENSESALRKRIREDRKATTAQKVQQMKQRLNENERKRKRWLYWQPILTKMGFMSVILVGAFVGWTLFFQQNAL
Protocol: The steroid analogues were tested for inhibition against the commercially available full length tyrosine phosphatase PTP1B. The ability of each analogue to inhibit the activity of PTP1B was measured in the presence of 10 μM of the steroid analogue. The assay uses para-nitro-phenyl phosphate (pNPP), a non-specific substrate to assess phosphatase activity. Phosphatase activity was based on the ability of PTP 1B to catalyze the hydrolysis of pNPP to p-nitrophenol (pNP).
The steroid analogues were also tested for their ability to inhibit the tyrosine phosphatase TCPTP as an indication of their potential toxicity by the inhibition of the immune response. The TCPTP inhibition assay was done in the same manner as the PTP1B assay except full length TCPTP was used as the enzyme and the inhibitor was at a concentration of 200 μM. The results of the TCPTP inhibition assays are shown in Table 1, column D and show three compounds that inhibit TCPTP less than 50% even at a 20 fold greater concentration.

[7] = tested on: Insulin Receptor β (IR-β) in the hypothalamus; assay: Phosphorylation of IR-β in the rat hypothalamus (IP / anti-pTyr western blot); type: in vivo; conditions: male SD rats, 10 mg/kg i.p. Day 0; insulin 100 U/kg i.p. Day 1; 15 or 30 min post-dose; listed as MSI-1436, 10 mg/kg
Protocol: Male SD rats were divided into 8 groups with 4 rats per group. All rats were fed ad libitum normal rodent chow and regular tap water. On Day 0, rats were dosed via intraperitoneal (i.p.) injection with 10 mg/kg MSI-1436 or 0.9% saline. Rats were fasted overnight from Day 0 to Day 1. On Day 1, animals were dosed i.p. with 0.9% saline or 100 U/kg of insulin. At 15 or 30 minutes post-dose (Day 1), animals were sacrificed and the hypothalamuses were harvested, transferred to 1.5 mL eppendorf tubes, and frozen in liquid nitrogen. Samples were stored at −80° C. until further analysis. Hypothalamuses were pooled (3-4 per group) and homogenized in 2-mL Wheaton vials and Dounce homogenizers in 1 mL of tissue extraction reagent plus phosphatase and protease inhibitors. Lysates were centrifuged for 10 minutes at 4° C. (14,000 rpm) and the supernatants were transferred to new 1.5 mL eppendorf tubes. Lysates (500 μg) were immunoprecipitated for Insulin Receptor β overnight at 4° C. The samples were then bound to Protein A according to standard protocols for 4 hours at 4° C. […]
500 μg of total protein from each sample was loaded onto a 1.5 mm 4-12% Bis-Tris Novex gel and run at 175V for approximately 1 hr in 1×MOPS buffer. […] The ratio of the pTyr-IRβ band to the IRβ band was computed in Excel and the fold change in IR phosphorylation determined. […]

| Compound | % Reduction in OGTT Above Baseline AUC [1] | Reduction in ABAUC compared to saline control (in words) [1] | % Reduction in FBG [2] | Reduction of FBG levels compared to saline control (in words) [2] | % Change in Body Weight [4] | inhibition at 200 µM [6] | further results |
| --- | --- | --- | --- | --- | --- | --- | --- |
| CC(C)[C@H](OS(=O)(=O)O)[C@@H](C)[C@H]1CCC2C3C(CC[C@@]21C)[C@@]1(C)CC[C@H](NCCCNCCCCNCCCN)C[C@@H]1C[C@H]3O (stereo partly drawn) [Compound 1814] | 60% | significant reduction | 46% | significant reduction | – | – | – |
| CC(C)[C@@H](CC[C@@H](C)[C@H]1CCC2C3C(CC[C@@]21C)[C@@]1(C)CCC(O)C[C@H]1C[C@H]3O)OS(=O)(=O)O (stereo partly drawn) [Compound 2459] | – | – | – | – | – | – | inhibition at 5 µM [3]: 17% |
| CC(C)[C@@H](CC[C@@H](C)[C@H]1CCC2C3C(CC[C@@]21C)[C@@]1(C)CC[C@H](NCCCNCCCCNCCCN)C[C@H]1C[C@H]3O)OS(=O)(=O)O (stereo partly drawn) [Compound 1701] | 49% | significant reduction | 40% | significant reduction | 3% | – | Response in glucose tolerance test vs saline treated controls (FIG. 3 legend) [1]: respond significantly faster; Weight loss (in words) [4]: do not produce weight loss |
| CC(C)[C@@H](CC[C@@H](C)[C@H]1CCC2C3C(CC[C@@]21C)[C@@]1(C)CC[C@H](NCCCNCCCCNCCCN)C[C@@H]1C[C@H]3O)OS(=O)(=O)O (stereo partly drawn) [Compound 1436] | 83% | significant reduction | 64% | significant reduction | −8% | 0% | Weight gain and appetite in animal models [5]: inhibit weight gain and suppress appetite; Amount of phospho-Tyrosine on insulin stimulated IR-β in the hypothalamus (fold change, pTyr-IRβ/IRβ) [7]: can increase the level; also recorded: nearly doubles |
| COC(=O)CC[C@@H](C)[C@H]1CCC2C3C(CC[C@@]21C)[C@@]1(C)CC[C@H](NCCCNCCCCN)C[C@@H]1C[C@H]3O (stereo partly drawn) [Compound 1320] | – | – | – | – | – | 0% | – |
| CC(C)CCC[C@@H](C)[C@H]1CCC2C3C(CC[C@@]21C)[C@@]1(C)CC[C@H](NCCCNCCCCN)C[C@@H]1C[C@H]3O (stereo partly drawn) [Compound 1371] | – | – | – | – | – | 0% | – |
| CC(C)CCC[C@@H](C)[C@H]1CCC2C3CC[C@H]4C[C@@H](NCCCNCCCCNCCCN)CC[C@]4(C)C3CC[C@@]21C (stereo partly drawn) [Compound 1303] | – | – | – | – | – | 83% | – |
| COC(=O)CC[C@@H](C)[C@H]1CCC2C3C[C@@H](O)[C@H]4C[C@@H](NCCN)CC[C@]4(C)C3CC[C@@]21C (stereo partly drawn) [Compound 1431] | 47% | significant reduction | 55% | significant reduction | −7% | – | Weight loss (in words) [4]: weight loss similar to 1436 |
| CC(C)[C@@H](CC[C@@H](C)[C@H]1CCC2C3C(CC[C@@]21C)[C@@]1(C)CC[C@H](NCCCNCCCCNCCCN)C[C@@H]1C[C@H]3O)OS(=O)(=O)O (stereo partly drawn) [Compound 1873] | 47% | significant reduction | 41% | significant reduction | 4% | – | Response in glucose tolerance test vs saline treated controls (FIG. 3 legend) [1]: respond significantly faster; Weight loss (in words) [4]: do not produce weight loss |
| CC(C)[C@@H](CC[C@@H](C)C1CCC2C3C(CC[C@@]21C)[C@@]1(C)CCC(=O)C[C@H]1C[C@@H]3O)S(=O)(=O)O (stereo partly drawn) [Compound 2347] | – | – | – | – | – | – | inhibition at 5 µM [3]: 27% |
| CNCCNC(C)[C@H]1CCC2C3CC=C4CC(O)CC[C@]4(C)C3CC[C@@]21C (stereo partly drawn) [Compound 2498] | – | – | – | – | – | – | inhibition at 5 µM [3]: 13% |
| C[C@H](CCS(=O)(=O)O)[C@H]1CCC2C3CC[C@H]4C[C@@H](NCCCNCCCCN)CC[C@]4(C)C3CC[C@@]21C (stereo partly drawn) [Compound 1370] | – | – | – | – | – | 44% | – |
